What all share (experiment): In Vitro Activity Kinase Assay
For test [1], the target named is Mast/stem cell growth factor receptor Kit (Homo sapiens, UniProt P10721). The protocol:
(§1) In vitro kinase assay profiled against a panel of different kinase binding assay using Ambit kinomeScan technology. Biochemical IC50 values were determined using the Z'-lyte assays format from Invitrogen.

Test [2] concerns the target Fibroblast growth factor receptor 3 (Homo sapiens, UniProt P22607). The protocol:
as §1

The target of test [3] is Vascular endothelial growth factor receptor 2 (Homo sapiens, UniProt P35968). The protocol: as §1
For test [4], the target named is Platelet-derived growth factor receptor beta (Homo sapiens, UniProt P09619). The protocol: as §1
Test [5] addresses Vascular endothelial growth factor receptor 1 (Homo sapiens, UniProt P17948). The protocol:
as §1

In test [6] the target is Vascular endothelial growth factor receptor 3 (Homo sapiens, UniProt P35916). The protocol:
as §1

Test [7] has as its target Tyrosine-protein kinase Blk (Homo sapiens, UniProt P51451). The protocol:
as §1

Test [8] concerns the target Fibroblast growth factor receptor 4 (Homo sapiens, UniProt P22455). As to the method: as §1
The target of test [9] is Mitogen-activated protein kinase 7 (Homo sapiens, UniProt Q13164). The protocol:
as §1

For test [10], the target named is Fibroblast growth factor receptor 2 (Homo sapiens, UniProt P21802). The protocol:
as §1

Test [11] deals with Fibroblast growth factor receptor 1 (Homo sapiens, UniProt P11362). The protocol: as §1
For test [12], the target named is Hepatocyte growth factor receptor (Homo sapiens, UniProt P08581). The protocol: as §1

Sequence of Tyrosine-protein kinase Blk (P51451 whole entry): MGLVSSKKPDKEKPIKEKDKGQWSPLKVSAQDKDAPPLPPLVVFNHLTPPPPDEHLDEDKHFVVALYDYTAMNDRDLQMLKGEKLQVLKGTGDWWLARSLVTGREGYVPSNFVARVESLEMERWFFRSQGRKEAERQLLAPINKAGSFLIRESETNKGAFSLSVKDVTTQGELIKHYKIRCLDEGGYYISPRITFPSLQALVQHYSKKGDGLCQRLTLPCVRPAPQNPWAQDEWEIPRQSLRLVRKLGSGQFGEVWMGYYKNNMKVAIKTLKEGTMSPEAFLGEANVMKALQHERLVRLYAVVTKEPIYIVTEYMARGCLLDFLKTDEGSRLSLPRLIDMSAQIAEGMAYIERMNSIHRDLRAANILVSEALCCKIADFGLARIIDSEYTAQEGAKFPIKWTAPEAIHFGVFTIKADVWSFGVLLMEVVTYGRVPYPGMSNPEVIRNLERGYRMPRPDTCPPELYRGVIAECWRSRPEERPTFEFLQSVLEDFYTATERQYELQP
Sequence of Vascular endothelial growth factor receptor 2 (P35968 whole entry): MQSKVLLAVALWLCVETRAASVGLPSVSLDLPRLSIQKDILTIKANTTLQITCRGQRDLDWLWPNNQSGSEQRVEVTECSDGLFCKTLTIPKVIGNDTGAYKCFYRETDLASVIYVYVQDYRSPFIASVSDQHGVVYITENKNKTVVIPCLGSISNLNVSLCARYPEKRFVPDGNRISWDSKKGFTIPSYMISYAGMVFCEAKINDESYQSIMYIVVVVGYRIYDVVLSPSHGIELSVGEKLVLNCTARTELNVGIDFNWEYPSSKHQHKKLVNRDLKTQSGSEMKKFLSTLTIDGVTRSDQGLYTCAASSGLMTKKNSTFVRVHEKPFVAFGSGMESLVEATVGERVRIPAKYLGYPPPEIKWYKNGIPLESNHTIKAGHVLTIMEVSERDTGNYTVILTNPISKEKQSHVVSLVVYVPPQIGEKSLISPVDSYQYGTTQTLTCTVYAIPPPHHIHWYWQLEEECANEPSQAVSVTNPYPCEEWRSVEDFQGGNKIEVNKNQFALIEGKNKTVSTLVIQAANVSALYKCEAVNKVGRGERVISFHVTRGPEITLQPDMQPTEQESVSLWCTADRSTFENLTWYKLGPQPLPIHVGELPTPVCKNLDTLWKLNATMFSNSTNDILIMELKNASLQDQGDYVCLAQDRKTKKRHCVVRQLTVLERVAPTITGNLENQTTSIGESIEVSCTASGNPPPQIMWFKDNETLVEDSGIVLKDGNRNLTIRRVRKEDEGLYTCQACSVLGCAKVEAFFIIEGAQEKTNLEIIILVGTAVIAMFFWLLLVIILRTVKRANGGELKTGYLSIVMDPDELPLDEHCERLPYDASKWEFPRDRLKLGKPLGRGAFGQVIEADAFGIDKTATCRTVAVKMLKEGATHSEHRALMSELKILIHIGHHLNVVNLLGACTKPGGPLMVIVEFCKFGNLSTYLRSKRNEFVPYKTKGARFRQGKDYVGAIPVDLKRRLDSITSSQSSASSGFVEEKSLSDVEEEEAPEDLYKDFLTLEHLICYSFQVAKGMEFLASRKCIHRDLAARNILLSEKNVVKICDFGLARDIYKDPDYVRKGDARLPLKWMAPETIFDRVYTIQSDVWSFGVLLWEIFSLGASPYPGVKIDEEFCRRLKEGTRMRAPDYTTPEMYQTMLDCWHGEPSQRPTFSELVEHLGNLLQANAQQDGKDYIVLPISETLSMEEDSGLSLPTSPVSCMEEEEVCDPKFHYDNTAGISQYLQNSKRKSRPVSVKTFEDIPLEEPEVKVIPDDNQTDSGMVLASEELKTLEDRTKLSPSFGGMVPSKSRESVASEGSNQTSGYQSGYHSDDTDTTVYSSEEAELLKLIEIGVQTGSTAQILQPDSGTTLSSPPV
Sequence of Fibroblast growth factor receptor 2 (P21802 whole entry): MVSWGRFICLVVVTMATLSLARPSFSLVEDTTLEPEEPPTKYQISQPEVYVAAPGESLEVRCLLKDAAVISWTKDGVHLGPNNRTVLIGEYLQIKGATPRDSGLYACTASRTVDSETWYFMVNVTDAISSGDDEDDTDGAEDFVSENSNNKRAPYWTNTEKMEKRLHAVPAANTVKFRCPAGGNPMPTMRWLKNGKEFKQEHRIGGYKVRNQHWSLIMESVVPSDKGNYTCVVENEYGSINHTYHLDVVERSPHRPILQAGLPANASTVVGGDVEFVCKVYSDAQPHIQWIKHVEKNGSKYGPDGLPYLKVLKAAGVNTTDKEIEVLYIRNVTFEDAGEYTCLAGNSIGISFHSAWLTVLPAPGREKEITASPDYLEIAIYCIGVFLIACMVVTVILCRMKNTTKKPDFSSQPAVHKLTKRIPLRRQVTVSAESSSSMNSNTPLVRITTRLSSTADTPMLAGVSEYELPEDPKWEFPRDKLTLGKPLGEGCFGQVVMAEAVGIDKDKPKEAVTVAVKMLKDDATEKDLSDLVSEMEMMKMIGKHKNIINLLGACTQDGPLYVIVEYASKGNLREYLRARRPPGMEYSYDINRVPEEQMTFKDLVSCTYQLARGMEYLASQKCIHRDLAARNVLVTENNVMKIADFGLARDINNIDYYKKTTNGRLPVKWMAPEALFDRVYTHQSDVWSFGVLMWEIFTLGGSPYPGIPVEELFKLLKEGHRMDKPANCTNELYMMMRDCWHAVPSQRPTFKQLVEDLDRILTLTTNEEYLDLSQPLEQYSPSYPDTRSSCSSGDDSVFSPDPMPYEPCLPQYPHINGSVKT
Sequence of Platelet-derived growth factor receptor beta (P09619 whole entry): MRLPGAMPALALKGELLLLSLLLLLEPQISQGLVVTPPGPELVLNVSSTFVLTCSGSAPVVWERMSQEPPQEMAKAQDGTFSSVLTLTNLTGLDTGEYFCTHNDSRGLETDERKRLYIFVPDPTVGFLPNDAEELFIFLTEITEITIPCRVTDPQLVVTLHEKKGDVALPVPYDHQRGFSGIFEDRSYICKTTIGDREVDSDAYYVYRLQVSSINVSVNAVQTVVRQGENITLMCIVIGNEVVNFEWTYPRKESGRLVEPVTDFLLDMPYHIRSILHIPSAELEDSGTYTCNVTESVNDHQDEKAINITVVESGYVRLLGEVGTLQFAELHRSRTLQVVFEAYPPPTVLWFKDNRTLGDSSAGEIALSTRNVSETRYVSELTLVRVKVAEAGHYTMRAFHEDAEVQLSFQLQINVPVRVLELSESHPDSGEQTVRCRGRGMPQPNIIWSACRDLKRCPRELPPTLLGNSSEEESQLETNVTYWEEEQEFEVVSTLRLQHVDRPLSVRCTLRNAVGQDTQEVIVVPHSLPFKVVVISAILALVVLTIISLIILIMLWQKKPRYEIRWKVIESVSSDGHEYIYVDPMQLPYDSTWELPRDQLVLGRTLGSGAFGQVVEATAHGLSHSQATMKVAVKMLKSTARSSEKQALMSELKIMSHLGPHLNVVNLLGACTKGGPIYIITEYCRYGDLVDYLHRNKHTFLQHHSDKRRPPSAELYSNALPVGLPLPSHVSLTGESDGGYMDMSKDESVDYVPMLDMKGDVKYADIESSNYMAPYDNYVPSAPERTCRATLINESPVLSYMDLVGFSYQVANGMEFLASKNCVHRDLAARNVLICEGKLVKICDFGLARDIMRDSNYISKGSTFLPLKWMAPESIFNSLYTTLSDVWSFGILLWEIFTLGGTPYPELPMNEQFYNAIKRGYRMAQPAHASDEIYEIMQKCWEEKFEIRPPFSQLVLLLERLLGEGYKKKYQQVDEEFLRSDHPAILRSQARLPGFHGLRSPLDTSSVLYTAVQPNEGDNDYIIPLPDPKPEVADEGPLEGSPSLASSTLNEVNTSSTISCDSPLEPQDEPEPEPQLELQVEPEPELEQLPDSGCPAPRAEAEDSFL
Sequence of Fibroblast growth factor receptor 4 (P22455 whole entry): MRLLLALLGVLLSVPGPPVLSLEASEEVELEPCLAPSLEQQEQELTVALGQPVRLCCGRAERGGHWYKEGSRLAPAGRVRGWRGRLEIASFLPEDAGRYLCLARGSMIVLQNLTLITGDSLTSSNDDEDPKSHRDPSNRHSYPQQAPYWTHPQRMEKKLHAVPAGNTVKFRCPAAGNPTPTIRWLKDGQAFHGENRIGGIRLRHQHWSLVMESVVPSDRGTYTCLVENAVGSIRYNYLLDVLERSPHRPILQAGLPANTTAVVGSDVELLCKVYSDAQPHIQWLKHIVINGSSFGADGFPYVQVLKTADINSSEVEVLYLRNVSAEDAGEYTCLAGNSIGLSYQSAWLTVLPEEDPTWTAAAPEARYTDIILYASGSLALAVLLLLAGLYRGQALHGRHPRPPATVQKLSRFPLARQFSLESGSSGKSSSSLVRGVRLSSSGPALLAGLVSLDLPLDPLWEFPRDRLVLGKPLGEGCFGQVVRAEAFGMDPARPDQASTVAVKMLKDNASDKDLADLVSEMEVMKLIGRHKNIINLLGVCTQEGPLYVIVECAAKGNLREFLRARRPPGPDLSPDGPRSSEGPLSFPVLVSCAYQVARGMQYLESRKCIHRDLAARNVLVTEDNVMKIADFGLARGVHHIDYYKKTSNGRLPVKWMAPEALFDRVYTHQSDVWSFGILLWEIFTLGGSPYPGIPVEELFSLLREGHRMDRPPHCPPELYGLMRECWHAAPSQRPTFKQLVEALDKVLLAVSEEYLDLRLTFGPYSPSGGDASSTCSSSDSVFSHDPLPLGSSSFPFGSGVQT

Consider `CCNCCCCNc1ncc2c(n1)N(Cc1cccc(NC(=O)CC)c1)C(=O)N(c1c(Cl)c(OC)cc(OC)c1Cl)C2` [FRIN-1], for which the Kd in test [1] came out at 250 nM; in test [2], 5.4 nM; in test [3], 470 nM; in [4] it was 480 nM; in test [5], 49 nM; in test [6], 340 nM. Moreover, the Kd in test [7] turned out to be 2300 nM; in test [8] it was 280 nM; in test [9], 130 nM; in test [10], 5.6 nM; in test [11], 3.1 nM; in test [12], 1400 nM.

These data come from BindingDB's records for doi:10.1016/j.chembiol.2010.02.007 (Harvard Medical School, 2010).
